This is an account of results in PMC7782785, “Outer-membrane-acting peptides and lipid II-targeting antibiotics cooperatively kill Gram-negative pathogens” (Communications Biology, 2021).

≈ marks a conversion by molar mass, not a printed value. Where a SMILES comes first, the peptide text is derived from it. Where no end group is shown, it is not given here. [ ]: non-standard residue; d: D form.

Data set [1] has as its system E. coli LMG 15862. In words: microbe, parasite or virus in culture. As to the method: (§1) MIC tests were performed in triplicate by liquid growth inhibition microdilution assays in sterile polypropylene microtiter plates according to the Clinical and Laboratory Standards Institute (CLSI) guideline for bacteria that grow aerobically. Briefly, the indicator strains were first streaked on the appropriate agar plate, and then single colonies were picked and incubated overnight in liquid broth. The final inoculum of bacteria was 5*10^5 CFU/mL prepared in CAMHB (cationic adjusted Mueller–Hinton broth, Sigma-Aldrich) or CAMHB plus 5% of lysed horse blood (TCS Biosciences, Buckingham, UK) in the case of S. pneumoniae. The antimicrobials were 2-fold serially diluted and 50 µL diluted bacterial suspension was added to each well to make the final volume 100 µL. The microtiter plates and the count plates were incubated at 37 °C for 16–20 h without shaking. Growth inhibition was assessed by measuring the OD600 using a microplate reader (Tecan Infinity F200). The lowest concentration of the antimicrobials that inhibits visible growth of the indicator strain is identified as the MIC value.
(§2) The condition for the tests and the analysis of the plates were performed as described above for the MIC tests.

In data set [2] the test system is E. aerogenes LMG 02094. In words: microbe, parasite or virus in culture. As to the method: as §1, §2
Data set [3] deals with P. aeruginosa LMG 6395. Put plainly: microbe, parasite or virus in culture. Here is the method: as §1, §2
For data set [4], the system named is K. pneumoniae LMG 20218. In words: microbe, parasite or virus in culture. Here is the method: as §1, §2
The test system of data set [5] is A. baumannii LMG 01041. In words: microbe, parasite or virus in culture. Here is the method:
as §1, §2

The test system of data set [6] is human red blood cells (hRBCs). Conditions: cited from earlier work.
Data set [7] deals with E. coli LMG 15862. As to the method: (§3) For the synergy test, standard checkerboard broth microdilution assays were conducted to test the synergistic effect of combined antimicrobials using the same condition as before[51],[56]. […] The initial concentration of both peptides was their individual MIC. 50 µL fresh bacterial suspension prepared as above was added to the wells already containing the antimicrobial compound mixture to achieve 100 µL final volume per well.
(§4) The fractional inhibitory concentration (FIC) indices[57] were calculated using the formula FICI = FICa + FICb = MICac/MICa + MICbc/MICb, to determine whether the combination is additive, synergistic or antagonistic[51],[57]. The MICa and MICb is the MIC of compound A or B alone, respectively. MICac is the MIC of compound A in combination with compound B and MICbc is the MIC of compound B when it was combined with compound A. The FIC corresponds to the MIC of a compound in combination with the other compound, divided by the MIC of the compound alone. FICa is FIC of compound A while FICb is FIC of compound B. The FICI was interpreted according to EUCAST[58] as follows: synergistic, FICI ≤ 0.5; additive,0.5 < FICI ≤ 1; indifferent, 1 < FICI < 2; antagonistic, FICI ≥ 2.
as §2

Data set [8] deals with E. aerogenes LMG 02094. Here is the method:
as §3, §4, §2

Data set [9] has as its system P. aeruginosa LMG 6395. Here is the method: as §3, §4, §2
Data set [10] deals with K. pneumoniae LMG 20218. The conditions noted are these: LMG 20218. Here is the method:
as §3, §4, §2

The test system of data set [11] is A. baumannii LMG 01041. As to the method: as §3, §4, §2
The conditions of data set [12]: human plasma (EDTA K2), 3.2 mM peptide, 37 °C, 200 rpm, samples at 1, 3, 6 h; read-out halo size in spot-on-lawn against K. pneumoniae LMG 20218; triplicate. Here is the method: For plasma stability, the peptides were lyophilized and resuspended in plasma or PBS (as a control) at a final concentration of 3.2 mM. After that, the peptides were incubated with shaking (200 rpm) during 6 h at 37 °C. At time 1, 3, and 6 h, 10 µL samples were tested against K. pneumoniae LMG 20218 by a spot-on-lawn test. Reduction in the size of the halo was related to the degradation of the peptide. The test was performed in triplicate.

Setting [13] is: compound alone, CLSI broth microdilution, CAMHB, 5*10^5 CFU/mL, 37 °C, 16–20 h, OD600, triplicate.

As to VDKPPYLPRPRPPRRIYNR [L-2], the MIC in [1] (LMG 15862) is 4 µM; in [2] (LMG 02094), over 64 µM; in data set [3] (LMG 6395) it was over 64 µM; in [4] (LMG 20218) it was 8 µM; in [5] (LMG 01041) it was 16 µM.
Regarding AIVQRIKKWLR-NH2 [L-13], the MIC is recorded as 12 µM in data set [1] (LMG 15862); 128 µM in [2] (LMG 02094); 16 µM in [3] (LMG 6395); 24 µM in data set [4] (LMG 20218); 128 µM in [5] (LMG 01041).
For KRIVQRIKKWLR-NH2 [L-8], the hemolytic activity entry in data set [6] is “very low hemolytic activity”. Moreover, the MIC is reported as 4 µM in data set [1] (LMG 15862); 32 µM in data set [2] (LMG 02094); 16 µM in data set [3] (LMG 6395); 64 µM in data set [4] (LMG 20218); 16 µM in [5] (LMG 01041).
Turning to `CC[C@@H](C)[C@@H](NC(=O)[C@@H](CCCCN)NC(=O)[C@@H](CCCCN)NC(=O)[C@@H](Cc1c[nH]c2ccccc12)NC(=O)[C@@H](CC(C)C)NC(=O)[C@H](N)CCCNC(=N)N)C(=O)N[C@H](CCCNC(=N)N)C(=O)N[C@H](CCC(N)=O)C(=O)N[C@@H](C(=O)N[C@@H](C(=O)N[C@H](CCCNC(=N)N)C(N)=O)[C@H](C)CC)C(C)C` [D-11R] (H-[dR][dL][dW][dK][dK][dI][dR][dQ][dV][dI][dR]-NH2), the “FICI, peptide + nisin” value in data set [7] stood at 0.375; in data set [8], 0.188; in [9], 0.188; in data set [10] it was 0.125; in data set [11] it was 0.188. In data set [12], the stability in plasma entry is listed as “completely resistant to degradation in plasma”. Besides, the MIC is 8 µM (≈ 12 µg/mL) in [1] (LMG 15862); 32 µM (≈ 47.8 µg/mL) in data set [2] (LMG 02094); 16 µM (≈ 23.9 µg/mL) in data set [3] (LMG 6395); 32 µM (≈ 47.8 µg/mL) in data set [4] (LMG 20218); 64 µM (≈ 95.7 µg/mL) in data set [5] (LMG 01041).
With RIVQRIKKWL-NH2 [L-10], the MIC in data set [1] (LMG 15862) was 32 µM; in data set [2] (LMG 02094), over 256 µM; in [3] (LMG 6395) it was 16 µM; in data set [4] (LMG 20218), 64 µM; in data set [5] (LMG 01041), 128 µM.
On to KIVQRIKKWLR-NH2 [L-12], for which the MIC in data set [1] (LMG 15862) is recorded as 16 µM; in [2] (LMG 02094), 256 µM; in data set [3] (LMG 6395) it was 16 µM; in data set [4] (LMG 20218) it was 32 µM; in data set [5] (LMG 01041) it was 128 µM.
Take GIGKHVGKALKGLKGLLKGLGEC [L-7]: the MIC in data set [1] (LMG 15862) was determined as 6 µM; in [2] (LMG 02094), 8 µM; in [3] (LMG 6395), 13 µM; in data set [4] (LMG 20218), 12 µM; in [5] (LMG 01041) it was 2 µM.
As for RIWVIWRR-NH2 [L-5], the MIC in [1] (LMG 15862) is given as 3 µM; in data set [2] (LMG 02094), 5 µM; in data set [3] (LMG 6395), 3 µM; in [4] (LMG 20218) it was 6 µM; in data set [5] (LMG 01041), 2 µM.
For GNNRPVYIPQPRPPHPRL [L-1], the MIC in data set [1] (LMG 15862) is 0.5 µM; in data set [2] (LMG 02094), 8 µM; in [3] (LMG 6395) it was over 64 µM; in [4] (LMG 20218), 5 µM; in data set [5] (LMG 01041), over 64 µM.
For RLLFRKIRRLKR [L-4], the MIC is recorded as 64 µM in [1] (LMG 15862); over 256 µM in data set [2] (LMG 02094); over 128 µM in data set [3] (LMG 6395); over 256 µM in data set [4] (LMG 20218); over 128 µM in data set [5] (LMG 01041).
As to VDKGSYLPRPTPPRPIYNRN-NH2 [L-3], the MIC is 3 µM in data set [1] (LMG 15862); over 32 µM in [2] (LMG 02094); 32 µM in [3] (LMG 6395); 16 µM in data set [4] (LMG 20218); 8 µM in data set [5] (LMG 01041).
In the case of RRLFRRILRWL-NH2 [L-6], in data set [6], the “hemolytic activity in previous studies” value is reported as “rather high hemolytic activity”. In addition, the MIC in data set [1] (setting [13]) is 2 µM; in [2] (setting [13]), 8 µM; in data set [3] (setting [13]), 3 µM; in data set [4] (setting [13]), 4 µM; in [5] (setting [13]), 2 µM.
RIRKRIKKWLR-NH2 [L-14]: the MIC in data set [1] (LMG 15862) is reported as 16 µM; in data set [2] (LMG 02094), over 256 µM; in data set [3] (LMG 6395), 16 µM; in data set [4] (LMG 20218), over 256 µM; in data set [5] (LMG 01041) it was over 256 µM.
For RIVQRIKKWR-NH2 [L-9], the MIC in data set [1] (LMG 15862) is 256 µM; in data set [2] (LMG 02094), over 256 µM; in [3] (LMG 6395) it was over 256 µM; in [4] (LMG 20218), over 256 µM; in data set [5] (LMG 01041) it was over 256 µM.
As for RIKRRIKKWLR-NH2 [L-15], the MIC in [1] (LMG 15862) was 24 µM; in data set [2] (LMG 02094) it was over 256 µM; in data set [3] (LMG 6395), 32 µM; in data set [4] (LMG 20218) it was over 256 µM; in [5] (LMG 01041), over 256 µM.
Consider RIVQRIKKWLR-NH2 [L-11], for which the “FICI, peptide + nisin” value in data set [11] amounted to 0.063. Further, in data set [12], the stability in plasma entry is on record as “almost completely degraded within the first 3 h”. In addition, the MIC in data set [1] (LMG 15862) is given as 12 µM; in [2] (LMG 02094), 128 µM; in data set [3] (LMG 6395), 16 µM; in data set [4] (LMG 20218), 32 µM; in data set [5] (LMG 01041) it was over 64 µM.
